Measurements taken from the SangsterLogP compilation.

Columns and labels:
[1] = method code SF-AS, from DOI: 10.1002/jhrc.1240040906; details: pH 5.0
[2] = method code SF-CR+AS, from Korenman, I.; Tishchenko, M.; Kombarova, A. (1977). Distribution of dihydroxynaphthalenes between higher alcohols and water. Zh. Prikl. Khim., 50(4)899-901.; details: pH 2.0
[3] = method code SF-RC, from DOI: 10.1002/jlcr.1525
[4] = method code SF, from DOI: 10.1021/ac00105a018
[5] = pH 4.3
[6] = method code SF-AS, from DOI: 10.1081/jlc-100101494
[7] = method code SF-GLC, from DOI: 10.1016/j.chemosphere.2004.08.061, PMID: 15519382
[8] = method code SF-AS, from DOI: 10.1248/cpb.39.1217
[9] = method code SF-AS, from DOI: 10.1002/jps.2600711105; details: pH 7.4
[10] = not given; remark: listed apart in the source
[11] = method code SF-AS, from DOI: 10.1021/jf60220a002
[12] = method code SF-AS, from DOI: 10.1021/jm00297a026, PMID: 5441130
[13] = method code SF-AS, from DOI: 10.1139/y89-042, PMID: 2547502; details: pH 7.4
[14] = method code SF-AS, from DOI: 10.1016/s0006-2952(02)01074-2, PMID: 12392818; details: pH 7.4
[15] = not given; remark: listed apart in the source
[16] = method code SF, from DOI: 10.1248/cpb.42.1525, PMID: 7923475
[17] = method code SF-RC, from DOI: 10.1016/j.apradiso.2013.03.021, PMID: 23602704; details: pH 7.4
[18] = method code SF, from DOI: 10.1021/jm00002a007, PMID: 7830268
[19] = method code SF-AS, from DOI: 10.1016/0005-2744(69)90103-x, PMID: 4387594
[20] = not given; remark: listed apart in the source
[21] = method code SF-AS, from DOI: 10.1021/jm00128a017, PMID: 2754702; details: pH 7.4
[22] = method code SF-AS, from DOI: 10.1016/0378-5173(82)90005-9; details: pH 3.0
[23] = method code SF, from DOI: 10.1016/0378-5173(90)90261-2; details: pH 3.0
[24] = method code SF, from DOI: 10.1023/a:1018952108327, PMID: 7855051; details: pH 5.0
[25] = method code …, from Korenman, I.; Polumestnaya, I.; Mezentseva, P. (1979). Investigations of the relationship of extraction of 1-naphthol and some of its derivatives by the method of correlation equations. Zh. Prikl. …; details: pH 2.0
[26] = not given; remark: listed apart in the source
[27] = method code SF-AS, from DOI: 10.1016/0039-9140(66)80126-1, PMID: 18959847; details: pH 7.5
[28] = not given; remark: listed apart in the source
[29] = not given; remark: listed apart in the source
[30] = method code SF-AS, from DOI: 10.1080/10826079508009280; details: pH 7.0
[31] = method code SF-AS, from PMID: 6692390; details: pH 4.0
[32] = method code SF-AS, from DOI: 10.1081/jlc-100100410; details: pH 4.0
[33] = not given; remark: listed apart in the source
[34] = method code SF-AS, from DOI: 10.1021/jm00212a022, PMID: 836502
[35] = method code SF, from Korenman, I.; Polumestnaya, I. (1982). Principles of interfacial distribution of certain substituted naphthalenes. Zh. Prikl. Khim., 55(2)364-367.
[36] = method code SF-AS, from DOI: 10.1002/chin.198419165, PMID: 6653771; details: pH 2.5
[37] = method code SF-AS, from Korenman, Y.; Pazynin, T. (1972). Distribution of nitrosonaphthols between organic solvents and water. J. anal. chem. USSR, 27(4)723-725.; details: pH 2.0
[38] = method code SF-CR+AS, from Korenman, I.; Lineva, S.; Gezikova, N. (1978). Extraction of naphthol-sulfonic acids from aqueous solution. Zh. Prikl. Khim., 51(4)869-871.
[39] = method code SF-AS, from Brown, J.; Yu, N.; Cory, M.; Bicknell, R.; Taylor, D. (1978). In vivo evaluation of the radiosensitizing and cytotoxic properties of newly synthesized electron-affinic drugs. 3, 206-211.
[40] = method code SF-HPLC, from DOI: 10.1016/0378-5173(85)90011-0
[41] = not given; remark: listed apart in the source
[42] = not given; remark: listed apart in the source
[43] = method code SF-HPLC, from DOI: 10.1023/a:1007522626070, PMID: 10714611; details: pH 7.4
[44] = method code SF-CR, from PMID: 15170; details: pH 3.0
[45] = from Villegas-Navarro, A.; Rodriguez, M. (1984). Structure-activity relationships between quinone moieties and inhibition of sodium transport. In Kuchar, M. (Ed.) QSAR in Design of Bioactive Compounds. …
[46] = method code SF-HPLC, from DOI: 10.1016/0378-5173(84)90193-5; details: pH 4.0
[47] = not given; remark: listed apart in the source
[48] = not given; remark: listed apart in the source
[49] = not given; remark: listed apart in the source

Question: With `NC(=O)c1cnc2n(c1=O)CCCC2` as the molecule, how does the logD [1] read?
Answer: The logD was -0.38.

Question: Which logD [2] does the source give for `Oc1cc(O)c2ccccc2c1` here?
Answer: Its logD is 1.97.

Question: Which logP [3] does the source give for `O=C(O)CN(CCN1CCN=C1[N+](=O)[O-])CC(=O)O` here?
Answer: The logP was -0.82.

Question: With `CCCc1ccc(O)cc1` as the molecule, how does the logP [4] read?
Answer: The logP was 3.

Question: Which logD [5] does the source give for `Nc1ccc(S(=O)(=O)Nc2ncccn2)cc1` here?
Answer: The logD was -0.04.

Question: With `CC1(Br)C(=O)NC(=O)N2C3CC(N=[N+]=[N-])C(COC21)O3` (stereo not given) as the molecule, how does the logP [6] read?
Answer: The logP was 1.11.

Question: Which logP [7] does the source give for `Cn1c(Cl)c(Br)c(Cl)c1-c1c(Br)c(Br)c(Cl)n1C` here?
Answer: The logP was 6.5.

Question: With `Cc1nccnc1CC(C)C` as the molecule, how does the logP [8] read?
Answer: Its logP is 1.96.

Question: Which logD [9] does the source give for `CC(=O)c1nc([N+](=O)[O-])n(CC(C)O)c1C` (stereo not given) here?
Answer: Its logD is 0.37.

Question: With `Clc1ccc2ccccc2c1` as the molecule, how does the logP read?
Answer: The logP was 4.07.

Question: For `Clc1ccc2ccc(Cl)cc2c1`, which logP [10] is on record?
Answer: Its logP is 4.81.

Question: Which logP [11] does the source give for `CCOP(N)(=O)O/N=C(/C#N)c1ccccc1` (stereo not given) here?
Answer: Its logP is 0.72.

Question: With `CCCCn1cnc2c(N)ncnc21` as the molecule, how does the logP [12] read?
Answer: Its logP is 1.25.

Question: With `Nc1ncnc2c1nc(Br)n2[C@@H]1O[C@@H]2COP(=O)(O)O[C@H]2[C@H]1O` as the molecule, how does the logD [13] read?
Answer: The logD was -2.44.

Question: Which logD [14] does the source give for `OC1CCOc2ccccc21` (stereo not given) here?
Answer: Its logD is 1.31.

Question: Which logP [15] does the source give for `O=C(O)CNC(=O)OCc1ccccc1` here?
Answer: Its logP is 1.47.

Question: Which logP [16] does the source give for `CCCC(=O)c1ccccc1` here?
Answer: The logP was 2.66.

Question: Which logD [17] does the source give for `Nc1nc(=O)n([C@H]2C[C@H](O)[C@@H](CO)O2)cc1I` here?
Answer: Its logD is -0.94.

Question: For `CCOP(=O)(OCC)C1(C)CCC=[N+]1[O-]` (stereo not given), which logP [18] is on record?
Answer: The logP was -1.22.

Question: Which logP [19] does the source give for `CCCNc1ccccc1` here?
Answer: The logP was 2.45.

Question: With `NC1CC1c1ccccc1` (stereo not given) as the molecule, how does the logP [20] read?
Answer: The logP was 1.49.

Question: For `Nc1nc2c(ncn2C2CC(O)C(CO)O2)c(=O)[nH]1` (stereo not given), which logD [21] is on record?
Answer: Its logD is -1.3.

Question: For `O=C1NC(=S)NC(=O)C12CCCCC2`, which logD [22] is on record?
Answer: The logD was 1.78.

Question: Which logD [23] does the source give for `O=C(O)CCCc1ccccc1` here?
Answer: The logD was 2.32.

Question: Which logD [24] does the source give for `CN1C(CCl)Nc2cc(Cl)c(S(N)(=O)=O)cc2S1(=O)=O` (stereo not given) here?
Answer: The logD was 0.6.

Question: Which logD [25] does the source give for `O=Nc1c(Br)cc2ccccc2c1O` here?
Answer: Its logD is 2.93.

Question: For `CC(=O)Nc1ccc(OC(=O)CBr)cc1`, which logP [26] is on record?
Answer: The logP was 1.08.

Question: For `Cc1ccc2cccc(O)c2n1`, which logD [27] is on record?
Answer: Its logD is 2.33.

Question: With `ClC1=C(Cl)C2(Cl)C3C(Cl)C=CC3C1(Cl)C2(Cl)Cl` (stereo not given) as the molecule, how does the logP [28] read?
Answer: Its logP is 5.58.

Question: With `Cc1cn([C@H]2O[C@@H](CO)[C@H](O)[C@H]2F)c(=O)[nH]c1=O` as the molecule, how does the logP [29] read?
Answer: Its logP is -0.51.

Question: Which logD [30] does the source give for `Nc1nc(Cl)nc2c1ncn2[C@@H]1O[C@H](CO)[C@@H](O)[C@@H]1F` here?
Answer: Its logD is 0.5.

Question: Which logD [31] does the source give for `COc1ccc(NC(=O)N(C)N=O)cc1` here?
Answer: Its logD is 0.64.

Question: Which logD [32] does the source give for `Nc1ccc(S(=O)(=O)Nc2ccc(Cl)nn2)cc1` here?
Answer: The logD was 0.86.

Question: For `O=c1[nH]c(-c2ccccc2)nc2nn[nH]c12`, which logP [33] is on record?
Answer: Its logP is 1.27.

Question: With `CCCOc1cc(N)ccc1C(=O)O` as the molecule, how does the logP [34] read?
Answer: The logP was 1.53.

Question: Which logP [35] does the source give for `O=S(=O)(O)c1cc(O)c2ccccc2c1` here?
Answer: Its logP is -0.18.

Question: Which logD [36] does the source give for `O=C(O)c1ccccc1NCCO` here?
Answer: Its logD is 1.16.

Question: Which logD [37] does the source give for `O=Nc1c(O)ccc2ccccc12` here?
Answer: The logD was 2.28.

Question: For `O=S(=O)(O)c1cccc2c(O)cccc12`, which logP [38] is on record?
Answer: Its logP is -0.17.

Question: With `CC(=O)OCC(Cn1ccnc1[N+](=O)[O-])OC(C)=O` (stereo not given) as the molecule, how does the logP [39] read?
Answer: The logP was -0.05.

Question: With `CCCC(=O)n1ncc2c(=O)[nH]cnc21` as the molecule, how does the logP [40] read?
Answer: The logP was 0.85.

Question: With `CN(C)/N=N/c1ccc(CC(=O)O)cc1` as the molecule, how does the logP [41] read?
Answer: Its logP is 1.38.

Question: Which logP [42] does the source give for `OC[C@@H]1C[C@@H](F)[C@H](n2cnc3c(F)ncnc32)O1` here?
Answer: Its logP is 0.06.

Question: Which logD [43] does the source give for `CCn1nnc(C2=CCC[N+](C)([O-])C2)n1` (stereo not given) here?
Answer: Its logD is -1.5.

Question: Which logD [44] does the source give for `CCc1nnc(NS(=O)(=O)c2ccc(N)cc2)s1` here?
Answer: The logD was 1.01.

Question: Which logP [45] does the source give for `CC1=CC(=O)C(C(C)C)=CC1=O` here?
Answer: The logP was 2.2.

Question: Which logD [46] does the source give for `O=c1[nH]cc(F)c(=O)n1Oc1ccccc1` here?
Answer: Its logD is 0.8.

Question: Which logP [47] does the source give for `Nc1ccc([N+](=O)[O-])c2ccccc12` here?
Answer: The logP was 1.77.

Question: For `COc1ccc(NC(=O)C2CC2)cn1`, which logP [48] is on record?
Answer: Its logP is 1.57.

Question: For `CCCCC1C(=O)NC(=O)N(C)C1=O` (stereo not given), which logP [49] is on record?
Answer: Its logP is 1.1.
